Experimental data reported in patent US9776995B2, “Bicyclic sulfonamide compounds as sodium channel inhibitors” (AMGEN INC., priority 2013, dated 2017).

target: Nav 1.7 (Homo sapiens (Human), UniProt Q15858); assay: Nav 1.7 in vitro PX assay (PatchXpress whole cell voltage clamp); assay type: cell-based; conditions: HEK 293 cells stably transfected with human Nav1.7; PatchXpress; partially inactivated state;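 note: holding potential set for 20 to 50% inactivation, sodium current evoked by a 20 ms step to −10 mV, peak current inhibition read after compound exposure, 3–5 cells per concentration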
Sequence (Q15858 whole entry): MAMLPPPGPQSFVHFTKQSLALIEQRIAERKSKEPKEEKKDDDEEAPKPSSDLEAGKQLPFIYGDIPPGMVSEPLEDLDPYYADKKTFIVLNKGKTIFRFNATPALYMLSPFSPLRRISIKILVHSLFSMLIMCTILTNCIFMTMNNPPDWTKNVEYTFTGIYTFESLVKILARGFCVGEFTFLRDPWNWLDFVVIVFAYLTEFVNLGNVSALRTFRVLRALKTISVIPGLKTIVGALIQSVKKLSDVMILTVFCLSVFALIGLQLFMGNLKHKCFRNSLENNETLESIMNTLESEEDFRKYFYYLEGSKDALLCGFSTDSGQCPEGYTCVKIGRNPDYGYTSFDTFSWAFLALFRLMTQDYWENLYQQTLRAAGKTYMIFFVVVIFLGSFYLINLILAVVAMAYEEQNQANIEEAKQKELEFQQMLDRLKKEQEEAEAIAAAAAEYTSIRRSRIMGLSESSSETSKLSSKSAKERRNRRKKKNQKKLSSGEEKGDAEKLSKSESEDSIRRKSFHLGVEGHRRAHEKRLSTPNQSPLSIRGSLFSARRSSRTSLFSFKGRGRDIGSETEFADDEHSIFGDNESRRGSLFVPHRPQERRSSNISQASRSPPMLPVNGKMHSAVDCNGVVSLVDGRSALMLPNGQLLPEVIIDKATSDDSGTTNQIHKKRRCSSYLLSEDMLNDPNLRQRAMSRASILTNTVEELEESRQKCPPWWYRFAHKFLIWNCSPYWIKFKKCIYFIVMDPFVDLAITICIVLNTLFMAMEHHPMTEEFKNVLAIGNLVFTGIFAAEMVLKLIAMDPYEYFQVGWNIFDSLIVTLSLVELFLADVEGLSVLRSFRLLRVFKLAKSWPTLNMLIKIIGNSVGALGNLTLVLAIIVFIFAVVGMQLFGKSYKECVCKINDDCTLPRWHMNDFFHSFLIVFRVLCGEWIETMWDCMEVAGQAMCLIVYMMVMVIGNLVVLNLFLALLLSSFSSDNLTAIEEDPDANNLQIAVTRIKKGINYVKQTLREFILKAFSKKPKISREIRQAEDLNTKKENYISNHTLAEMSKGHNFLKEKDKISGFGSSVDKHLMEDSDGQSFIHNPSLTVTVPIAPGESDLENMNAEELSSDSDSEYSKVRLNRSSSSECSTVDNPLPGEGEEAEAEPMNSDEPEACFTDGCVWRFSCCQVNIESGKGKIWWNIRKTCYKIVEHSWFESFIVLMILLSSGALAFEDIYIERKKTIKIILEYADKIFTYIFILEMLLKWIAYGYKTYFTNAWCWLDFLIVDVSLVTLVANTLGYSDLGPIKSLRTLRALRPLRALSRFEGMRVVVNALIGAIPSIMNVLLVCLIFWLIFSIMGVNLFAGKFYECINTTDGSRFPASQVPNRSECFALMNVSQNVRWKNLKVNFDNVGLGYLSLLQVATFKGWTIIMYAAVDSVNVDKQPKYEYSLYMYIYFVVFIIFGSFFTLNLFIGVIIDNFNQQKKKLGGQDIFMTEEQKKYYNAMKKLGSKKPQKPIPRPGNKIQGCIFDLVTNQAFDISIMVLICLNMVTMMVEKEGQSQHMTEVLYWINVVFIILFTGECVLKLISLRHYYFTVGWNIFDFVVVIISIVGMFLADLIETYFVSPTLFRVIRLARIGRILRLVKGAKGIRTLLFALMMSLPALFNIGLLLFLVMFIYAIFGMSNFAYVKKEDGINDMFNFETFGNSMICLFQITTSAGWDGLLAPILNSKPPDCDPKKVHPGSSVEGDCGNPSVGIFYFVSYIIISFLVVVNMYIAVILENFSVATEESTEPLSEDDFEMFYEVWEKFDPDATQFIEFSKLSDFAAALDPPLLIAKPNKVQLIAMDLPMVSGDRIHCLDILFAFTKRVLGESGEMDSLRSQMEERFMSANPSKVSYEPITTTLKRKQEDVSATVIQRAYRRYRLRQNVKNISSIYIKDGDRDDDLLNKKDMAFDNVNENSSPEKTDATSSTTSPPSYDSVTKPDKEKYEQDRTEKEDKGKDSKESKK

Compound	IC50
COc1cc(-c2ccc(Cl)c(C)c2)c(F)cc1-c1c(=O)[nH]cc2cc(S(=O)(=O)Nc3ccon3)ccc12 [Example 549, 4-(4′-chloro-2-fluoro-5-methoxy-3′-methyl-4-biphenylyl)-N-3-isoxazolyl-3-oxo-2,3-dihydro-7-isoquinolinesulfonamide]	8 nM
COc1cc(-c2cc(C)ccc2F)c(C)cc1-c1ncnc2cc(S(=O)(=O)Nc3ccon3)ccc12 [Example 556, 4-(2′-fluoro-5-methoxy-2,5′-dimethyl-4-biphenylyl)-N-3-isoxazolyl-7-quinazolinesulfonamide]	113 nM
COc1cc(-c2cccc(F)c2)c(F)cc1-c1nc(Cl)cc2cc(S(=O)(=O)Nc3ccon3)ccc12 [Example 393, 3-CHLORO-1-(2,3′-DIFLUORO-5-METHOXY-4-BIPHENYLYL)-N-3-ISOXAZOLYL-6-ISOQUINOLINESULFONAMIDE]	157 nM
COc1cc(-c2cccc(Cl)c2)c(Cl)cc1-c1ncnc2cc(S(=O)(=O)Nc3ncccn3)ccc12 [Example 437, 4-(2,3′-DICHLORO-5-METHOXY-[1,1′-BIPHENYL]-4-YL)-N-(PYRIMIDIN-2-YL)QUINAZOLINE-7-SULFONAMIDE]	72 nM

Now from value to compound:

IC50	Compound
1390 nM	COc1cc(-c2cccc(F)c2)c(Cl)cc1-c1c(C)ncc2cc(S(=O)(=O)Nc3ccon3)ccc12 (atropisomer, axis not shown; (P)) [Example 318, (P)-4-(2-chloro-3′-fluoro-5-methoxy-4-biphenylyl)-N-3-isoxazolyl-3-methyl-7-isoquinolinesulfonamide]
184 nM	COc1cc(-c2ccc(Cl)c(C)c2)c(F)cc1-c1c[nH]c(=O)c2cc(S(=O)(=O)Nc3ccon3)ccc12 [Example 452, 4-(4′-CHLORO-2-FLUORO-5-METHOXY-3′-METHYL-[1,1′-BIPHENYL]-4-YL)-N-(ISOXAZOL-3-YL)-1-OXO-1,2-DIHYDROISOQUINOLINE-7-SULFONAMIDE]
16 nM	COc1cc(-c2ccc(Cl)c(C)c2)c(F)cc1-c1[nH]c(=O)cc2cc(S(=O)(=O)Nc3ccon3)ccc12 [Example 548, 1-(4′-chloro-2-fluoro-5-methoxy-3′-methyl-4-biphenylyl)-N-3-isoxazolyl-3-oxo-2,3-dihydro-6-isoquinolinesulfonamide]
94 nM	COc1cc(-c2cc(F)ccc2F)c(C)cc1-c1ncnc2cc(S(=O)(=O)Nc3ccon3)ccc12 [Example 564, 4-(2′,5′-difluoro-5-methoxy-2-methyl-4-biphenylyl)-N-3-isoxazolyl-7-quinazolinesulfonamide]

same assay, conditions: PatchXpress (PX)

Compound	IC50
COc1cc(Cl)c(C)cc1-c1nccc2cc(S(=O)(=O)Nc3ccon3)ccc12 [Example 248, 1-(4-chloro-2-methoxy-5-methylphenyl)-N-3-isoxazolyl-6-isoquinolinesulfonamide]	187 nM
COc1cn(-c2cc(F)cc(F)c2)c(=O)cc1-c1nccc2cc(S(=O)(=O)Nc3ccon3)ccc12 [Example 56, 1-(1-(3,5-DIFLUOROPHENYL)-5-METHOXY-2-OXO-1,2-DIHYDROPYRIDIN-4-YL)-N-(ISOXAZOL-3-YL)ISOQUINOLINE-6-SULFONAMIDE]	11800 nM

same assay, conditions: in-vitro Nav 1.7 PX (PatchXpress)

IC50	Compound
37.5 nM	COc1cc(-c2cc(C)cc(Cl)c2)c(C)cc1-c1nccc2cc(S(=O)(=O)Nc3ccon3)ccc12 [Example 283, 1-(3′-chloro-5-methoxy-2,5′-dimethyl-4-biphenylyl)-N-3-isoxazolyl-6-isoquinolinesulfonamide]
480 nM	COc1cc(-c2ccc(OCC(F)(F)F)nc2)ccc1-c1nccc2cc(S(=O)(=O)Nc3ccon3)ccc12 [Example 303, N-3-isoxazolyl-1-(2-methoxy-4-(6-(2,2,2-trifluoroethoxy)-3-pyridinyl)phenyl)-6-isoquinolinesulfonamide]
137 nM	COc1cc(-c2ccc(Cl)c(F)c2)ccc1-c1nccc2cc(S(=O)(=O)Nc3ccon3)ccc12 [Example 290, 1-(4′-chloro-3′-fluoro-3-methoxy-4-biphenylyl)-N-3-isoxazolyl-6-isoquinolinesulfonamide]
